According to patent US6335350B1, “Acetamide and substituted acetamide-containing thiourea inhibitors of herpes viruses” (American Home Products Corporation, priority 1998, dated 2002):
In brackets after ≈: the same amount, converted by molar mass.

Legend:
[1] = system: HCMV wild-type; experiment: HCMV yield assay; type: cell-based, human cytomegalovirus; details: human foreskin fibroblasts; for IC50: Human betaherpesvirus 5, Fibroblast, read-out: IC50 Ug/ml HCMV
Method: Yield assay. Monolayer cultures of human foreskin fibroblasts are infected with HCMV wild-type, typically at a multiplicity of infection equal to 0.2, in the presence of inhibitor compound (varying concentrations). At three days post-infection, total virus produced in these cultures (i.e. virus yield) is assessed by harvesting and titering the virus in 12-well plates of cultured human foreskin fibroblasts (done in the absence of inhibitor). Plaques are quantified at 2 weeks post-infection. An inhibitor of HCMV is identified by the reduction in titer of virus yield in the presence, compared to the titer in the absence of compound. In this assay, the relative anti-HCMV activity of an inhibitor is typically determined by calculating the IC50 or IC90 value, that is, the amount of compound required to reduce the virus yield by 50% or 90%, respectively. Table I describes IC50 data for compounds tested against HCMV.

[2] = system: HSV-1; experiment: HSV Antiviral (ELISA) Assay; type: cell-based, herpes simplex virus type 1; details: Vero cells, HSV-1; for IC50: Human alphaherpesvirus 1, Vero, read-out: IC50 Ug/ml HSV
Method: Vero cells (ATCC #CCL-81) are plated on 96-well tissue culture plates at 3.5×10^4 cells per 100 μl tissue culture DMEM (Dulbecco's modified Eagle media) supplemented with 2% fetal bovine serum (FBS) in each well. After overnight incubation @ 37° C. (in 5% CO2) and 30 minutes prior to infection with HSV-1 (multiplicity of infection equal to 0.006), cells are either untreated, or treated with test compound (multiple concentrations) or reference standard drug control. After approximately 24 hours post-infection incubation @ 37° C. (in 5% CO2), cells are fixed for ELISA assay. The primary antibody is murine anti-HSV glycoprotein D monoclonal primary antibody and the secondary antibody is goat anti-mouse IgG linked to β-galactosidase. Thus the extent of viral replication is determined by assessing β-galactosidase activity by quantifying the generation of the 4-methyl umbelliferone fluorescent cleavage product after addition of the methyl umbelliferyl-β-D-galactoside (Sigma #M1633) substrate on a microfluorimeter (365 nm for excitation and 450 nm for emission). Antiviral activity (IC50) of the test compound is determined by comparing the flourescence obtained in absence of compound to that obtained in the presence of compound.

[3] = system: VZV strain Ellen; experiment: VZV Antiviral (ELISA) Assay; type: cell-based, varicella-zoster virus; details: human foreskin fibroblast cells; for IC50 / inhibition at 10 µg/mL: Human alphaherpesvirus 3, Fibroblast; for IC50: read-out: IC50 Ug/ml VZV; for inhibition at 10 µg/mL: read-out: % inhibition 10 ug/ml VZV, 10 ug/ml
Method: For the generation of stock VZV to be used in the assay, VZV strain Ellen (ATCC #VR-1367) is used to infect human foreskin fibroblast (HFF) cells at low multiplicity (less than 0.1) and incubated overnight at 37° C. in 5% CO2. After the overnight incubation, the mixture of uninfected and VZV-infected HFF infected cells are then harvested and added to each well of 96-well plates (3.5×10^4 cells in 100 μl DMEM supplemented with 2% FBS) which contain test compound or the reference standard drug control (in 100 μl DMEM supplemented with 2% FBS per well). These cells are incubated for three days at 37° C. in 5% CO2, then fixed for ELISA assay. The primary antibody is murine anti-VZV glycoprotein II monoclonal antibody (Applied Biosystems, Inc. #13-145-100) and the secondary antibody is goat anti-mouse IgG linked to β-galactosidase. Thus the extent of viral replication is determined by assessing β-galactosidase activity by quantifying the generation of the 4-methyl umbelliferone fluorescent cleavage product after addition of the methyl umbelliferyl-β-D-galactoside (Sigma #M1633) substrate on a microfluorimeter (365 nm for excitation and 450 nm for emission). Antiviral activity (IC50) of the test compound is determined by comparing the flourescence obtained in absence of compound to that obtained in the presence of compound.

Row | Compound | IC50 Ug/ml HCMV [1] | IC50 Ug/ml HSV [2] | % inhibition 10 ug/ml VZV [3] | IC50 Ug/ml VZV [3] | IC50 [1] | IC50 [2] | IC50 [3] | inhibition at 10 µg/mL [3]
1 | N-{4-[3-(4-Acetylamino-phenyl)-thioureido]-2-chloro-phenyl}-2-dipropylamino-acetamide [Example 410] | >10 Ug/ml | >10 Ug/ml | 26% | >10 Ug/ml | – | – | – | –
2 | COc1cc(OC)c(NC(=S)Nc2cc(OC)c(NC(C)=O)cc2C)cc1Cl [Example 285, N-{4-[3-(5-Chloro-2,4-dimethoxy-phenyl)-thioureido]-2-methoxy-5-methyl-phenyl}-acetamide] | – | – | – | – | > 50 µg/mL | > 50 µg/mL | > 10 µg/mL | 18%
3 | CC(=O)Nc1ccc(NC(=S)Nc2ccc(C(=O)O)c(Cl)c2)cc1 [Example 898, 4-[3-(4-Acetylamino-phenyl)-thioureido]-2-chloro-benzoic acid] | – | – | – | – | > 50 µg/mL | > 50 µg/mL | > 10 µg/mL | 0%
4 | CC(=O)Nc1ccc(NC(=S)Nc2ccc(NCCCN(C)C)c(Cl)c2)cc1 [Example 318, N-(4-{3-[3-Chloro-4-(3-dimethylamino-propylamino)-phenyl]-thioureido}-phenyl)-acetamide] | – | – | – | – | > 50 µg/mL | > 50 µg/mL | > 10 µg/mL | 26%
5 | COc1cc(OC)c(NC(=S)Nc2ccc(NC(C)=O)c(C(=O)c3ccccc3)c2)cc1Cl [Example 292, N-{2-Benzoyl-4-[3-(5-chloro-2,4-dimethoxy-phenyl)-thioureido]-phenyl}-acetamide] | – | – | – | – | > 10 µg/mL | > 50 µg/mL | 13 µg/mL (≈ 26.9 µM) | 70%
6 | COc1cc(OC)c(NC(=S)Nc2ccc(NC(C)=O)c(C#N)c2)cc1Cl [Example 259, N-{4-[3-(5-Chloro-2,4-dimethoxy-phenyl)-thioureido]-2-cyano-phenyl}-acetamide] | – | – | – | – | > 50 µg/mL | > 50 µg/mL | > 10 µg/mL | 28%
7 | COc1cc(OC)c(NC(=S)Nc2ccc(NC(C)=O)cc2)cc1F [Example 198, N-{4-[3-(5-Fluoro-2,4-dimethoxy-phenyl)-thioureido]-phenyl}-acetamide] | – | – | – | – | > 50 µg/mL | 9 µg/mL (≈ 24.8 µM) | > 10 µg/mL | 36%
8 | COc1ccc(NC(=S)Nc2ccc(NC(C)=O)cc2)c(OC)c1Cl [Example 179, N-{4-[3-(3-Chloro-2,4-dimethoxy-phenyl)-thioureido]-phenyl}-acetamide] | – | – | – | – | > 50 µg/mL | 5 µg/mL (≈ 13.2 µM) | > 10 µg/mL | 35%
9 | COc1cc(N2CCCCC2)c(NC(=S)Nc2ccc(NC(C)=O)cc2)cc1Cl [Example 229, N-{4-[3-(5-Chloro-4-methoxy-2-piperidin-1-yl-phenyl)-thioureido]-phenyl}-acetamide] | – | – | – | – | 7 µg/mL (≈ 16.2 µM) | 15 µg/mL (≈ 34.6 µM) | > 10 µg/mL | 35%
10 | CC(=O)Nc1ccc(NC(=S)Nc2ccc(N(C)C3CCN(C)C3)c(Cl)c2)cc1 (centres unmarked) [Example 845, N-[4-(3-{3-Chloro-4-[methyl-(1-methyl-pyrrolidin-3-yl)-amino]-phenyl}-thioureido)-phenyl]-acetamide] | – | – | – | – | 1 µg/mL (≈ 2.31 µM) | 20 µg/mL (≈ 46.3 µM) | > 10 µg/mL | 25%
11 | CCN(CC)CC(=O)Nc1ccc(NC(=S)Nc2ccc(NC(C)=O)cc2)cc1Cl [Example 412, N-{4-[3-(4-Acetylamino-phenyl)-thioureido]-2-chloro-phenyl}-2-diethyl-amino-acetamide] | >10 Ug/ml | >10 Ug/ml | 29% | >10 Ug/ml | – | – | – | –
12 | COc1cc(OC)c(NC(=S)Nc2cc(C)c(NC(C)=O)cc2Cl)cc1Cl [Example 326, N-{5-Chloro-4-[3-(5-chloro-2,4-dimethoxy-phenyl)-thioureido]-2-methyl-phenyl}-acetamide] | – | – | – | – | > 10 µg/mL | 10 µg/mL (≈ 23.3 µM) | > 10 µg/mL | 19%
13 | CC(=O)Nc1ccc(NC(=S)Nc2ccc(N3CCN(C)CC3)c(Cl)c2)cc1 [Example 243, N-(4-{3-[3-Chloro-4-(4-methyl-piperazin-1-yl)-phenyl]-thioureido}-phenyl)-acetamide] | – | – | – | – | 40 µg/mL (≈ 95.7 µM) | > 50 µg/mL | > 10 µg/mL | 4%
14 | CC(=O)Nc1ccc(NC(=S)Nc2ccc(OC(=O)c3ccccc3)cc2O)cc1 [Example 113, Benzoic acid 4-[3-(4-acetylamino-phenyl)-thioureido]-3-hydroxy-phenylester] | – | – | – | – | 45 µg/mL (≈ 107 µM) | 50 µg/mL (≈ 119 µM) | > 10 µg/mL | 39%
15 | COc1cc(OC)c(NC(=S)Nc2ccc(NC(C)=O)cc2C#N)cc1Cl [Example 383, N-{4-[3-(5-Chloro-2,4-dimethoxy-phenyl)-thioureido]-3-cyano-phenyl}-acetamide] | – | – | – | – | > 10 µg/mL | > 10 µg/mL | > 10 µg/mL | 38%
16 | CC(=O)Nc1ccc(NC(=S)Nc2ccc(N3CCOCC3)c(Cl)c2)cc1 [Example 205, N-{4-[3-(3-Chloro-4-morpholin-4-yl-phenyl)-thioureido]-phenyl}-acetamide] | – | – | – | – | 20 µg/mL (≈ 49.4 µM) | > 50 µg/mL | > 10 µg/mL | 30%
17 | COc1cc(OC)c(NC(=S)Nc2ccc(NC(C)=O)nc2)cc1Cl [Example 314, N-{5-[3-(5-Chloro-2,4-dimethoxy-phenyl)-thioureido]-pyridin-2-yl}-acetamide] | – | – | – | – | 30 µg/mL (≈ 78.8 µM) | 2 µg/mL (≈ 5.25 µM) | > 10 µg/mL | 34%
18 | CC(=O)Nc1ccc(NC(=S)Nc2ccc(NS(C)(=O)=O)c(Cl)c2)cc1 [Example 369, N-{4-[3-(3-Chloro-4-methanesulfonylamino-phenyl)-thioureido]-phenyl}-acetamide] | – | – | – | – | > 10 µg/mL | > 10 µg/mL | > 10 µg/mL | 0%
19 | COc1cc(N2CCOCC2)c(NC(=S)Nc2ccc(NC(C)=O)cc2)cc1Cl [Example 226, N-{4-[3-(5-Chloro-4-methoxy-2-morpholin-4-yl-phenyl)-thioureido]-phenyl}-Acetamide] | – | – | – | – | > 50 µg/mL | > 50 µg/mL | > 10 µg/mL | 35%
20 | C=Cc1ccc(NC(=S)Nc2ccc(NC(C)=O)cc2)cc1Cl [Example 377, N-{4-[3-(3-Chloro-4-vinyl-phenyl)-thioureido]-phenyl}-acetamide] | – | – | – | – | 0.8 µg/mL (≈ 2.31 µM) | 3 µg/mL (≈ 8.67 µM) | > 10 µg/mL | 28%
21 | CC(=O)Nc1ccc(NC(=S)Nc2ccc(Oc3cc(Cl)c(Cl)cc3S(=O)(=O)O)c(Cl)c2)cc1 [Example 263, 2-{4-[3-(4-Acetylamino-phenyl)-thioureido]-2-chloro-phenoxy}-4,5-dichloro-benzensulfonic acid] | – | – | – | – | > 50 µg/mL | > 50 µg/mL | > 10 µg/mL | 20%
22 | CC(NC(=S)Nc1ccc(NC(=O)Cc2ccccc2)cc1)c1ccc(F)cc1 (centres unmarked) [Example 751, N-(4-{3-[1-(4-Fluoro-phenyl)-ethyl]-thioureido}-phenyl)-2-phenyl-acetamide] | – | – | – | – | > 0.5 µg/mL | > 10 µg/mL | – | –
23 | CCC(=O)Nc1ccc(NC(=S)NC(C)c2ccc(F)cc2)cc1 (centres unmarked) [Example 813, N-(4-{3-[1-(4-Fluoro-phenyl)-ethyl]-thioureido}-phenyl)-propionamide] | – | – | – | – | – | – | 3.5 µg/mL (≈ 10.1 µM) | –
24 | N-(4-{3-[1-(4-Fluoro-phenyl)-ethyl]-thioureido}-phenyl)-acetamide [Example 744] | >0.5 Ug/ml | >10 Ug/ml | – | – | – | – | – | –
